# Laboratory results from PubChem BioAssay AID1963832 (Molecular Pharmacology Branch, DTP, NCI, 2024).
# Test system: 885724-159-R-J1-PDC complex spheroid viability
# Test: Anticancer human tumor 885724-159-R-J1-PDC patient-derived pancreatic adenocarcinoma cell line growth inhibition [POLQ]
# Settings: for IC50: curve of first compound; for viability, T/C: stronger effect = lower value
# Method in brief: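 Patient-derived tumour cells were co-cultured with HUVEC and mesenchymal stem cells as multicellular spheroids at 37 °C. They were treated with POLQ inhibitors (novobiocin, ART-558, RP6685) alone or combined with other agents. Top concentrations were at or near clinical Cmax (otherwise 10 microM; SN-38 at 1 microM), decreasing in half-log steps.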
# [1] = second compound 0.0316 µM, first compound 0.0316 µM
# [2] = second compound 0.0316 µM, first compound 0.1 µM
# [3] = second compound 0.0316 µM, first compound 0.316 µM
# [4] = second compound 0.0316 µM, first compound 1 µM
# [5] = second compound 0.0316 µM, first compound 3.16 µM
# [6] = second compound 0.0316 µM, first compound 10 µM
# [7] = second compound 0.1 µM, first compound 0.0316 µM
# [8] = second compound 0.1 µM, first compound 0.1 µM
# [9] = second compound 0.1 µM, first compound 0.316 µM
# [10] = second compound 0.1 µM, first compound 1 µM
# [11] = second compound 0.1 µM, first compound 3.16 µM
# [12] = second compound 0.1 µM, first compound 10 µM
# [13] = second compound 0.316 µM, first compound 0.0316 µM
# [14] = second compound 0.316 µM, first compound 0.1 µM
# [15] = second compound 0.316 µM, first compound 0.316 µM
# [16] = second compound 0.316 µM, first compound 1 µM
# [17] = second compound 0.316 µM, first compound 3.16 µM
# [18] = second compound 0.316 µM, first compound 10 µM
# [19] = second compound 1 µM, first compound 0.0316 µM
# [20] = second compound 1 µM, first compound 0.1 µM
# [21] = second compound 1 µM, first compound 0.316 µM
# [22] = second compound 1 µM, first compound 1 µM
# [23] = second compound 1 µM, first compound 3.16 µM
# [24] = second compound 1 µM, first compound 10 µM
# [25] = second compound 3.16 µM, first compound 0.0316 µM
# [26] = second compound 3.16 µM, first compound 0.1 µM
# [27] = second compound 3.16 µM, first compound 0.316 µM
# [28] = second compound 3.16 µM, first compound 1 µM
# [29] = second compound 3.16 µM, first compound 3.16 µM
# [30] = second compound 3.16 µM, first compound 10 µM
# [31] = second compound 10 µM, first compound 0.0316 µM
# [32] = second compound 10 µM, first compound 0.1 µM
# [33] = second compound 10 µM, first compound 0.316 µM
# [34] = second compound 10 µM, first compound 1 µM
# [35] = second compound 10 µM, first compound 3.16 µM
# [36] = second compound 10 µM, first compound 10 µM
# 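Further: spheroids exposed to compounds for 7 days.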
compound,measurement,setting,value
CCc1cc2c(N3CCc4c(cc(Cn5ccnc5)cc4-c4cn(C)nc4C(F)(F)F)C3=O)cc(C)nc2c(OC)n1 + Cc1cccc(N(C)C(=O)C2C(O)CCN2c2nc(C)cc(C(F)(F)F)c2C#N)c1,IC50,second compound 0.0316 µM,> 10 µM
same,IC50,second compound 0.1 µM,> 10 µM
same,IC50,second compound 0.316 µM,> 10 µM
same,IC50,second compound 1 µM,> 10 µM
same,IC50,second compound 3.16 µM,> 10 µM
same,IC50,second compound 10 µM,> 10 µM
same,"viability, T/C",[1],86.5%
same,"viability, T/C",[2],82%
same,"viability, T/C",[3],84.8%
same,"viability, T/C",[4],75.2%
same,"viability, T/C",[5],83.1%
same,"viability, T/C",[6],70.1%
same,"viability, T/C",[7],85.9%
same,"viability, T/C",[8],86.2%
same,"viability, T/C",[9],84.6%
same,"viability, T/C",[10],81.7%
same,"viability, T/C",[11],78.5%
same,"viability, T/C",[12],68.1%
same,"viability, T/C",[13],89.1%
same,"viability, T/C",[14],83.5%
same,"viability, T/C",[15],84.3%
same,"viability, T/C",[16],83.9%
same,"viability, T/C",[17],77.4%
same,"viability, T/C",[18],68.7%
same,"viability, T/C",[19],93.5%
same,"viability, T/C",[20],92.1%
same,"viability, T/C",[21],86%
same,"viability, T/C",[22],79.2%
same,"viability, T/C",[23],76.1%
same,"viability, T/C",[24],68%
same,"viability, T/C",[25],93.2%
same,"viability, T/C",[26],84.9%
same,"viability, T/C",[27],88.2%
same,"viability, T/C",[28],84.5%
same,"viability, T/C",[29],72.9%
same,"viability, T/C",[30],75.4%
same,"viability, T/C",[31],83.9%
same,"viability, T/C",[32],91%
same,"viability, T/C",[33],87.5%
same,"viability, T/C",[34],81.6%
same,"viability, T/C",[35],75.8%
same,"viability, T/C",[36],71%
CCc1cc2c(N3CCc4c(cc(Cn5ccnc5)cc4-c4cn(C)nc4C(F)(F)F)C3=O)ccnc2c(OC)n1 + Cc1cccc(N(C)C(=O)C2C(O)CCN2c2nc(C)cc(C(F)(F)F)c2C#N)c1,IC50,second compound 0.0316 µM,> 10 µM
same,IC50,second compound 0.1 µM,> 10 µM
same,IC50,second compound 0.316 µM,> 10 µM
same,IC50,second compound 1 µM,> 10 µM
same,IC50,second compound 3.16 µM,> 10 µM
same,IC50,second compound 10 µM,> 10 µM
same,"viability, T/C",[1],94%
same,"viability, T/C",[2],82.9%
same,"viability, T/C",[3],81.8%
same,"viability, T/C",[4],89.2%
same,"viability, T/C",[5],74.3%
same,"viability, T/C",[6],78.4%
same,"viability, T/C",[7],104%
same,"viability, T/C",[8],81.7%
same,"viability, T/C",[9],88.6%
same,"viability, T/C",[10],83.6%
same,"viability, T/C",[11],84.7%
same,"viability, T/C",[12],63.8%
same,"viability, T/C",[13],96%
same,"viability, T/C",[14],89.9%
same,"viability, T/C",[15],84.4%
same,"viability, T/C",[16],89.1%
same,"viability, T/C",[17],82.5%
same,"viability, T/C",[18],59.5%
same,"viability, T/C",[19],83.8%
same,"viability, T/C",[20],84.7%
same,"viability, T/C",[21],92.4%
same,"viability, T/C",[22],79.7%
same,"viability, T/C",[23],85.5%
same,"viability, T/C",[24],62.8%
same,"viability, T/C",[25],94.2%
same,"viability, T/C",[26],85.5%
same,"viability, T/C",[27],86.6%
same,"viability, T/C",[28],89.7%
same,"viability, T/C",[29],79.4%
same,"viability, T/C",[30],72.6%
same,"viability, T/C",[31],92.8%
same,"viability, T/C",[32],83.7%
same,"viability, T/C",[33],86.4%
same,"viability, T/C",[34],87.8%
same,"viability, T/C",[35],72.7%
same,"viability, T/C",[36],63.5%
COc1cc2cc(C(=O)CCC(=O)O)sc2cc1OC + Cc1cccc(N(C)C(=O)C2C(O)CCN2c2nc(C)cc(C(F)(F)F)c2C#N)c1,IC50,second compound 0.0316 µM,> 10 µM
same,IC50,second compound 0.1 µM,> 10 µM
same,IC50,second compound 0.316 µM,> 10 µM
same,IC50,second compound 1 µM,> 10 µM
same,IC50,second compound 3.16 µM,> 10 µM
same,IC50,second compound 10 µM,> 10 µM
same,"viability, T/C",[1],108%
same,"viability, T/C",[2],104%
same,"viability, T/C",[3],100%
same,"viability, T/C",[4],103%
same,"viability, T/C",[5],107%
same,"viability, T/C",[6],95.6%
same,"viability, T/C",[7],114%
same,"viability, T/C",[8],103%
same,"viability, T/C",[9],96.9%
same,"viability, T/C",[10],104%
same,"viability, T/C",[11],99.2%
same,"viability, T/C",[12],103%
same,"viability, T/C",[13],99.5%
same,"viability, T/C",[14],106%
same,"viability, T/C",[15],89.2%
same,"viability, T/C",[16],109%
same,"viability, T/C",[17],98.4%
same,"viability, T/C",[18],85.7%
same,"viability, T/C",[19],105%
same,"viability, T/C",[20],114%
same,"viability, T/C",[21],93.1%
same,"viability, T/C",[22],104%
same,"viability, T/C",[23],105%
same,"viability, T/C",[24],93.5%
same,"viability, T/C",[25],116%
same,"viability, T/C",[26],96.5%
same,"viability, T/C",[27],103%
same,"viability, T/C",[28],98%
same,"viability, T/C",[29],104%
same,"viability, T/C",[30],88.6%
same,"viability, T/C",[31],101%
same,"viability, T/C",[32],105%
same,"viability, T/C",[33],99.2%
same,"viability, T/C",[34],102%
same,"viability, T/C",[35],87.7%
same,"viability, T/C",[36],92.5%
COc1ccc([C@@H](O)c2cc(-c3ncnc4cc(N5CCOCC5)ccc34)c(F)cc2Cl)nn1 + Cc1cccc(N(C)C(=O)C2C(O)CCN2c2nc(C)cc(C(F)(F)F)c2C#N)c1,IC50,second compound 0.0316 µM,4.63 µM
same,IC50,second compound 0.1 µM,4.02 µM
same,IC50,second compound 0.316 µM,4.68 µM
same,IC50,second compound 1 µM,3.96 µM
same,IC50,second compound 3.16 µM,4.44 µM
same,IC50,second compound 10 µM,4.6 µM
same,"viability, T/C",[1],112%
same,"viability, T/C",[2],90.2%
same,"viability, T/C",[3],88.6%
same,"viability, T/C",[4],70.1%
same,"viability, T/C",[5],60.5%
same,"viability, T/C",[6],35.6%
same,"viability, T/C",[7],93.7%
same,"viability, T/C",[8],91.6%
same,"viability, T/C",[9],81.5%
same,"viability, T/C",[10],64.7%
same,"viability, T/C",[11],56.7%
same,"viability, T/C",[12],35.2%
same,"viability, T/C",[13],104%
same,"viability, T/C",[14],84.8%
same,"viability, T/C",[15],81.1%
same,"viability, T/C",[16],81.9%
same,"viability, T/C",[17],57.2%
same,"viability, T/C",[18],33.7%
same,"viability, T/C",[19],103%
same,"viability, T/C",[20],93.2%
same,"viability, T/C",[21],89%
same,"viability, T/C",[22],68%
same,"viability, T/C",[23],55.3%
same,"viability, T/C",[24],34.5%
same,"viability, T/C",[25],100%
same,"viability, T/C",[26],92.5%
same,"viability, T/C",[27],85.1%
same,"viability, T/C",[28],78.6%
same,"viability, T/C",[29],55.2%
same,"viability, T/C",[30],33.4%
same,"viability, T/C",[31],101%
same,"viability, T/C",[32],90.3%
same,"viability, T/C",[33],85.1%
same,"viability, T/C",[34],77%
same,"viability, T/C",[35],55.9%
same,"viability, T/C",[36],34.9%
